Assay results from publication PMC6099693, “Design, Synthesis, and In Vitro Evaluation of Novel Histone H3 Peptide-Based LSD1 Inactivators Incorporating α,α-Disubstituted Amino Acids with γ-Turn-Inducing Structures” (Molecules : A Journal of Synthetic Chemistry and Natural …, 2018).
*1 amine or outer side, *2 acyl side, *3 side chain or, on linkers, in order; H or OH if unused. Where a SMILES comes first, the peptide text is derived from it. [ ]: non-standard residue; d: D form. Lys((1R,2S)-2-Ph-cPr) = N[C@@H](CCCCN[C@@H]1C[C@H]1c1ccccc1)C(=O)O; X1 = O=C(C1(N[*:1])C2CC3CC(C2)CC1C3)[*:2]; Ac6c = NC1(C(=O)O)CCCCC1; Aib = CC(C)(N)C(=O)O

Legend:
Type in all cases: biochemical
MAO-A = target: T1, MAO-A (Homo sapiens, UniProt P21397); assay: MAO-Glo assay, MAO-A inhibitory activity; conditions: for IC50: Promega V1401, MAO-A 18 units/mL, substrate 160 µM, room temperature, 60 min, chemiluminescence, means ± S.D. of at least three experiments
T1 construct: purchased Sigma-Aldrich
T1 sequence (P21397 1-527): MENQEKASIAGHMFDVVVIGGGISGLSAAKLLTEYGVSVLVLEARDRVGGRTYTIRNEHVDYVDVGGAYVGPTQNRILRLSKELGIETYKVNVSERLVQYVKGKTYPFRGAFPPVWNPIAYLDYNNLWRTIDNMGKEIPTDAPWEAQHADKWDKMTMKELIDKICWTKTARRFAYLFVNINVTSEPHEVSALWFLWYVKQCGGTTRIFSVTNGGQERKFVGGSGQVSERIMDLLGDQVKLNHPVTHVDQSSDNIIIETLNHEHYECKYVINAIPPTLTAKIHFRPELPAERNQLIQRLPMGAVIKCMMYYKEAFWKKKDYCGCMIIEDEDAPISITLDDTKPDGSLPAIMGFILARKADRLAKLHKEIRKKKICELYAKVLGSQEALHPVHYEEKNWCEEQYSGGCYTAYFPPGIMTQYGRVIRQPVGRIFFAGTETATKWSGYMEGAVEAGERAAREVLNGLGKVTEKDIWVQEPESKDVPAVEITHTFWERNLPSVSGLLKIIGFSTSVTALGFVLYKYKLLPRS
Experimental: (§1) We assayed for the LSD1 inhibitory activities of novel peptides 2a–c. The assay was performed with an LSD1 Fluorometric Drug Discovery Kit (Enzo Life Sciences, New York, NY, USA, BML-AK544-0001). […] Next, we examined the time-dependency of LSD1 inhibition by peptides 2a–c. […] We also assayed for the inhibitory activities of monoamine oxidases (MAOs), which are FAD-dependent oxidases associated with neurotransmitter metabolism, to investigate the selectivity toward LSD1. For this investigation, we used a MAO-Glo^TM Assay System (Promega, Madison, WI, USA, V1401).
(§2) Assays for MAO inhibitory activity were carried out according to the supplier’s protocol using a MAO-Glo^TM Assay System (Promega, V1401). […] Reactions were stopped after 60 min by adding reconstituted Luciferin Detection Reagent (50 µL/well). Then, 20 min after the addition of this reagent, the chemiluminescence of the wells was measured with a 2030 ARVO^TM X3 Multilabel Reader (PerkinElmer). For data processing, the same procedure as that for LSD1 inhibitory activity was used.

LSD1 = target: T2, LSD1 (Homo sapiens, UniProt O60341); assay: LSD1 Fluorometric Drug Discovery Kit, LSD1 inhibitory activity; conditions: for IC50: Enzo BML-AK544-0001 kit, 15 min pre-incubation with LSD1 (0.5 µg/well), room temperature, H3K4me2 peptide 20 µM, 30 min, fluorescence 540/590 nm, means ± S.D. of at least three experiments; for LSD1 inhibitory activity: comparison within Table 1
T2 construct: purchased Enzo Life Sciences BML-AK544-0001
Experimental: The assay was performed with an LSD1 Fluorometric Drug Discovery Kit (Enzo Life Sciences, New York, NY, USA, BML-AK544-0001). […] We also assayed for the inhibitory activities of monoamine oxidases (MAOs), which are FAD-dependent oxidases associated with neurotransmitter metabolism, to investigate the selectivity toward LSD1. For this investigation, we used a MAO-Glo^TM Assay System (Promega, Madison, WI, USA, V1401).
Inhibitors were pre-incubated with LSD1 (0.5 µg/well; room temperature; 15 min) before reactions were initiated by the addition of H3K4me2 peptide (2.3 µg/well, 20 µM) into all wells except the blank. After incubation (room temperature; 30 min), CeLLestial^TM Red and HRP in the assay buffer were added and the incubation was prolonged (room temperature; 5 min). […] IC50 values were determined by regression analysis of the concentration/inhibition data.

MAO-B = target: T3, MAO-B (Homo sapiens, UniProt P27338); assay: MAO-Glo assay, MAO-B inhibitory activity; conditions: Promega V1401; MAO-B 6 units/mL, substrate 16 µM; room temperature, 60 min; chemiluminescence; means ± S.D. of at least three experiments
T3 construct: purchased Sigma-Aldrich
T3 sequence (P27338 1-520): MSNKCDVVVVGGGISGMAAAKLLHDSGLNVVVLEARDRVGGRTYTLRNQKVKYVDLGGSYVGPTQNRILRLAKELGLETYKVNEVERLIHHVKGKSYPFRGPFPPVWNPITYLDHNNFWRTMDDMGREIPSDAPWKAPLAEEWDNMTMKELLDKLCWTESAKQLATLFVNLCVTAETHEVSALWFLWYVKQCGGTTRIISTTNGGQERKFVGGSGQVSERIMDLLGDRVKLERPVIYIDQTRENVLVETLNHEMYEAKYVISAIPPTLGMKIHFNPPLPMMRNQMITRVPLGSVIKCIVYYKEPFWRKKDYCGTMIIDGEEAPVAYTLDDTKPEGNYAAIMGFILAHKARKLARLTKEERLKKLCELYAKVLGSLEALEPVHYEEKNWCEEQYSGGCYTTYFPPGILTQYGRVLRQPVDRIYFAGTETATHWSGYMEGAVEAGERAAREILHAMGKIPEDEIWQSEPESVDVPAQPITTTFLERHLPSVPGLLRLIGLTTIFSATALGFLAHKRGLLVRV
Experimental: as §1, §2

Compound	IC50 (LSD1) [µM]	IC50 (MAO-A) [µM]	IC50 (MAO-B) [µM]	LSD1 selectivity (LSD1; LSD1 selectivity, MAO-A/MAO-B assayed for selectivity toward LSD1) [fold]	MAO-A inactivation (MAO-A; peptides at 10 µM, PCPA as positive control)	LSD1 inhibitory activity (LSD1)
N[C@@H]1C[C@H]1c1ccccc1 (relative stereo) [PCPA, trans-2-phenylcyclopropylamine, reference compound]					inactivated both MAO-A and MAO-B	
C[C@H](N)C(=O)N[C@@H](CCCNC(=N)N)C(=O)N[C@H](C(=O)N[C@@H](CCCCN[C@@H]1C[C@H]1c1ccccc1)C(=O)N[C@@H](CCC(N)=O)C(=O)N[C@H](C(=O)N[C@@H](C)C(=O)N[C@@H](CCCNC(=N)N)C(=O)N[C@@H](CCCCN)C(=O)N[C@@H](CO)C(=O)N[C@H](C(=O)O)[C@@H](C)O)[C@@H](C)O)[C@@H](C)O [peptide 1, reference compound]	0.126 ± 0.002	> 10	> 10			inactivated LSD1 potently compared to PCPA
C[C@H](N)C(=O)N[C@@H](CCCNC(=N)N)C(=O)NC(C)(C)C(=O)N[C@@H](CCCCN[C@@H]1C[C@H]1c1ccccc1)C(=O)NC(C)(C)C(=O)N[C@H](C(=O)N[C@@H](C)C(=O)N[C@@H](CCCNC(=N)N)C(=O)N[C@@H](CCCCN)C(=O)N[C@@H](CO)C(=O)N[C@H](C(=O)O)[C@@H](C)O)[C@@H](C)O [peptide 2a] (H-AR[Aib][Lys((1R,2S)-2-Ph-cPr)][Aib]TARKST-OH; C-terminus assumed)	0.0891 ± 0.0053	> 10	> 10			

Further molecules by falling IC50 (LSD1), results first:

IC50 (LSD1) [µM]	IC50 (MAO-A) [µM]	IC50 (MAO-B) [µM]	LSD1 selectivity (LSD1; LSD1 selectivity, MAO-A/MAO-B assayed for selectivity toward LSD1) [fold]	Compound	MAO-A inactivation (MAO-A; peptides at 10 µM, PCPA as positive control)	LSD1 inhibitory activity (LSD1)
0.0724 ± 0.004	> 10	> 10		C[C@H](N)C(=O)N[C@@H](CCCNC(=N)N)C(=O)NC1(C(=O)N[C@@H](CCCCN[C@@H]2C[C@H]2c2ccccc2)C(=O)NC2(C(=O)N[C@H](C(=O)N[C@@H](C)C(=O)N[C@@H](CCCNC(=N)N)C(=O)N[C@@H](CCCCN)C(=O)N[C@@H](CO)C(=O)N[C@H](C(=O)O)[C@@H](C)O)[C@@H](C)O)C3CC4CC(C3)CC2C4)C2CC3CC(C2)CC1C3 (stereo partly drawn) [2c] (H-AR[X1][Lys((1R,2S)-2-Ph-cPr)][X1]TARKST-OH; C-terminus assumed)		
0.0584 ± 0.0025	> 10	> 10	> 170	C[C@H](N)C(=O)N[C@@H](CCCNC(=N)N)C(=O)NC1(C(=O)N[C@@H](CCCCN[C@@H]2C[C@H]2c2ccccc2)C(=O)NC2(C(=O)N[C@H](C(=O)N[C@@H](C)C(=O)N[C@@H](CCCNC(=N)N)C(=O)N[C@@H](CCCCN)C(=O)N[C@@H](CO)C(=O)N[C@H](C(=O)O)[C@@H](C)O)[C@@H](C)O)CCCCC2)CCCCC1 [peptide 2b] (H-AR[Ac6c][Lys((1R,2S)-2-Ph-cPr)][Ac6c]TARKST-OH; C-terminus assumed)		the most potent LSD1 inactivator among the peptides tested in this study
